What all share (assay type): in vivo
Series [1] can be described thus: Quantification of BHB and lactate in rat serum after oral administration (LC-MS/MS). To be noted: compared to baseline (internal control), sampling until 180 minutes. The procedure: (§1) The diLaKe ester (formula II) is diluted in physiological saline solution (0.9% NaCl) and administered as a single bolus of 2 mL, per oral dose. The dose of 4500 mg/kg is based on a previous pilot series. Placebo animals receive a single bolus of 2 mL physiological saline solution (0.9% NaCl).
Male Sprague Dawley rats are kept for acclimatization at a constant temperature of 23° C., with a 12 h light-dark cycle and with unlimited access to food and water. All animal handling is in accordance with national guidelines in Denmark and the Guide for the Care and Use of Laboratory Animals^1 and all experiments conformed to Danish Law (Act. No. 1306 of 23 Nov. 2007).
The rats are randomly selected to receive either diLaKe or placebo.
Rats are anaesthetised in an induction chamber with 8% Sevoflurane (Sevorane®, AbbVIE A/S, Copenhagen, Denmark) mixed with oxygen saturated atmospheric air (flow: 2.0 L/min).
Upon achieved anaesthesia, the rats are intubated and connected to a mechanical ventilator (Ugo Basile 7025 rodent ventilator, Comerio, Varese, Italy) with an adjusted flow of 1.0 L/min with 3.5% Sevoflurane. Body temperature is kept at a constant 37° C.±1° C. with a temperature probe (UNO, Zevenaar, Holland). A PTFE coated flexible orogastric tube (Fuchigami, Japan) is placed and the rat is left for stabilization for 15 minutes.
After stabilization a baseline blood sample is collected from the rat tail vein before administration of diLaKe or placebo.
(§2) Following the baseline blood sample, a bolus of diLaKe solution or placebo is administered via the orogastric tube to the animals. […] Serum is collected and stored at −80° C. for further analysis.
The concentration of BHB and lactate will be determined in the blood samples isolated from the rats according to example 3. Rat serum isolated every 15 minutes for a 2 hours are analyzed. The quantification is done on LC-MS/MS using isotopically labeled internal standards (7).
The LaKe ester (formula XXII and XXIII) was diluted in physiological saline solution (0.9% NaCl) and administered as a single bolus of 2 mL, per oral dose. The dose of 4500 mg/kg was based on a previous pilot series (data not shown).
Male Sprague Dawley rats (300-350 g, Taconic, Ry, Denmark) were kept for acclimatization at a constant temperature of 23° C., with a 12 h light-dark cycle and with unlimited access to food and water. […]
Based on own experience and reports by other research groups, a sample size of n=8 was considered adequate to identify a treatment effect. All results are expressed as mean±SD unless otherwise stated. Differences in concentrations were analysed using two-way ANOVA with Bonferroni post hoc correction. […]

Series [2] has as its system N-lactoyl-phenylalanine (Lac-Phe). As to the kind of experiment: Quantification of N-lactoyl-phenylalanine (Lac-Phe) in rat serum after oral administration (LC-MS/MS). To be noted: compared to baseline (internal control). The method, then:
As provided in example 21 with the difference that N-lactoyl-phenylalanine (Lac-Phe) was quantified using LC-MS/MS analyses.
LC-MS/MS analyses were carried out as follows: Forty μL rat plasma was diluted with 100 μL water in a 2 mL tube, added 115 μL methanol (Merck hypergrade) and 420 μL acetonitrile (Merck hypergrade), vortex mixed, incubated for 5 min at room temperature, and then centrifuged at 10,000×g for 5 min. Five hundred microliter supernatant was transferred to a 96-well plate (Eppendorf 1 mL deepwell), evaporated to dryness under a nitrogen gas flow at 30° C., and then reconstituted in 100 μL water with 0.1% formic acid. […]
The sample was introduced to the mass spectrometer through electrospray ionization in the negative mode with a capillary voltage of 2.2 kV and the source and desolvation temperatures were 150 and 500° C., and the nitrogen gas flows were 50 L/h (cone) and 800 L/h (desolvation). The analytes were detected in the multiple reaction monitoring mode with the following transitions (m/z) and cone voltage/collision energies (CV/CE), L-Lac-Phe (quantification ion m/z: 236.2>88.1, CV/CE: 25V/15 eV and qualifier ion m/z: 236.2>147.1, CV/CE: 25V/15 eV). […]

For a further series, the system named is free fatty acids (FFA). As to the kind of experiment: Non-esterified free fatty acids in rat serum after oral administration (NEFA-HR (2) kit). To be noted: rats, compared to baseline (internal control), sampling until 180 minutes. The procedure:
as §1, §2
The concentration of free-fatty acids (FFA) is determined in the blood samples isolated from the rats according to example 3. […]
Concentrations of non-esterified free fatty acids (NEFA) are measured using a NEFA-HR (2) kit (Wako, Chemicals Gmbh). Absorbance is measured by spectrometry (PHERAstar FS, BMG LABTECH, Ortenberg, Germany). […]
The concentration of free-fatty acids (FFA) was determined in the blood samples isolated from the rats according to example 4. […]
Concentrations of non-esterified free fatty acids (NEFA) were measured using a NEFA-HR (2) kit (Wako, Chemicals Gmbh). Absorbance was measured by spectrometry (PHERAstar FS, BMG LABTECH, Ortenberg, Germany).
The concentration of free-fatty acids (FFA) was determined in the blood samples isolated from the rats according to example 4, with the difference that KeLa (formula XXIV and XXV) was used. […]

As for `C[C@H](CCOC(=O)[C@H](C)O)OC(=O)[C@H](C)O` [diLaKe, (R)-butane-1,3-diyl (2S,2'S)-bis(2-hydroxypropanoate)], in series [1] (rats), the “Serum levels of BHB” value was “increase in serum levels” and the “Serum levels of lactate” value is “increase in serum levels”. In addition, the “Serum concentration of Lac-Phe” value in series [2] (rats, sampling until 180 minutes) is given as “increased serum concentration”. Further, the “FFA-levels in rat serum” value in the series with free fatty acids (FFA) was “decrease in FFA-levels”.

For `CC(=O)C(=O)OCC[C@@H](C)OC(=O)C(C)=O` [diPyKe, (R)-butane-1,3-diyl bis(2-oxopropanoate)], in series [1] (single rat), the “Serum levels of BHB” value is reported as “increase in serum levels” and the “Serum levels of lactate” value is “increase in serum levels”. Further, in series [2] (single rat), the “Serum concentration of Lac-Phe” value was “increased serum concentration”.
